Assay results reported in patent US5036083A, “Heterocyclic agents” (ICI Pharma, priority 1988, dated 1991).

Assays:
dogs = assay: Induction of methaemoglobin formation in dogs dosed orally; type: in vivo, dog; settings: oral, 5 mg/kg
From the text: In copending European Application No. 88300281.8 (published 28th Sept., 1988 as EP 0284174 Al) it is disclosed that certain indazolone derivatives are effective as inhibitors of the enzyme 5-LO and thus of leukotriene biosyntheses.

5-LO [1] = molecular target: T1, 5-LO (Cavia porcellus, UniProt A0A286X958); assay: Test (a): in vitro spectrophotometric cell-free enzyme assay, 5-LO isolated from guinea pig neutrophils; type: biochemical; settings: 5-LO from guinea pig neutrophils
T1 construct: cell free system using 5-LO isolated from guinea pig neutrophils; endogenous in cells; host or cells: guinea pig neutrophils
T1 sequence (A0A286X958 1-674): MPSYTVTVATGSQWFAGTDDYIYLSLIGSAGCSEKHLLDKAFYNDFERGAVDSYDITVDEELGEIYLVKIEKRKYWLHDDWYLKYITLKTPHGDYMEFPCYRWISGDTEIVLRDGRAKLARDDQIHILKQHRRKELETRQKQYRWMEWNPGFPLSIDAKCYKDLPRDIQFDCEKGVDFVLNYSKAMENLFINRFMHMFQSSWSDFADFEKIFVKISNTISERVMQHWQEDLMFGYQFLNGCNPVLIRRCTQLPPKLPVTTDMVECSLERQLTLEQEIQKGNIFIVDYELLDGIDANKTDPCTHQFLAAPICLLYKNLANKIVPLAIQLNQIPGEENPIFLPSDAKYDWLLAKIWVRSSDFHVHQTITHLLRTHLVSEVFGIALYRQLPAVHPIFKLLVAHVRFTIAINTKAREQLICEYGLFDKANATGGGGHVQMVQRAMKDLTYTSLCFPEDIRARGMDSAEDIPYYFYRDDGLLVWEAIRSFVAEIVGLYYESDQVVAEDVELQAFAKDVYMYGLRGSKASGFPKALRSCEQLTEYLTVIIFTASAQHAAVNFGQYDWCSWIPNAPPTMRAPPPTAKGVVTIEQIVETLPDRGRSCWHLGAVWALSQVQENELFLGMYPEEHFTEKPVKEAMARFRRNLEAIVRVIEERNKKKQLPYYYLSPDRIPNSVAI
From the text: (a) An in vitro spectrophotometric enzyme assay system, which assesses the inhibitory properties of a test compound in a cell free system using 5-LO isolated from guinea pig neutrophils and as described by D. Aharony and R. L. Stein (J. Biol. Chem., 1986, 261(25), 11512-11519). This test provides a measure of the intrinsic inhibitory properties against soluble 5-LO in an extracellular environment.

cyclooxygenase = molecular target: T2, cyclooxygenase (Rattus norvegicus, UniProt Q63921); assay: Test (b): heparinised rat blood challenged with A23187, PGE2 radioimmunoassay; type: cell-based
T2 construct: incubating a test compound with heparinised rat blood; from tissue; host or cells: heparinised rat blood
T2 sequence (Q63921 27-602): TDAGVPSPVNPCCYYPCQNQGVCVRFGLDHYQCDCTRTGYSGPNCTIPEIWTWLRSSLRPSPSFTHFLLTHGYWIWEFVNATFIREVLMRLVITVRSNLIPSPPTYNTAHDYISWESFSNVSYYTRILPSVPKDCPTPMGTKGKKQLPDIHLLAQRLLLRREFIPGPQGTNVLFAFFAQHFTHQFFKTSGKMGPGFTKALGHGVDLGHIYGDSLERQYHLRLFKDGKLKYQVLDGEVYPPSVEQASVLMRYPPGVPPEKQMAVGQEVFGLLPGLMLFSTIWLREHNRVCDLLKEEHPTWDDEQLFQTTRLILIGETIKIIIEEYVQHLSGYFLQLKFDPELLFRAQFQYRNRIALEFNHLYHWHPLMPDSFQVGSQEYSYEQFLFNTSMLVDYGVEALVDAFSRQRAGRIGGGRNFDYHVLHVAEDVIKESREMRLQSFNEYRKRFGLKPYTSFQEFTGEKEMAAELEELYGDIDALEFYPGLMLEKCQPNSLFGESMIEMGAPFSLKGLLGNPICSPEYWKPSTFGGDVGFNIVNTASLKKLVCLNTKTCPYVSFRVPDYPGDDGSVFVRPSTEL
Procedure: (§1) (b) An in vitro assay system involving incubating a test compound with heparinised rat blood, prior to challenge with the calcium ionophore A23187 and then indirectly measuring the inhibitory effects on 5-LO by assaying the amount of LTB4 using the specific radioimmunoassay described by Carey and Forder (F. Carey and R. A. Forder, Brit. J. Pharmacol. 1985, 84, 34P) which involves the use of a protein-LTB4 conjugate produced using the procedure of Young et alia Prostaglandins, 1983, 26(4), 605-613). The effects of a test compound on the enzyme cyclooxygenase (which is involved in the alternative metabolic pathway for arachidonic acid and gives rise to prostaglandins, thromboxanes and related metabolites) may be measured at the same time using the specific radioimmunoassay for prostaglandin E2 (PGE2) described by Carey and Forder (see above). This test provides an indication of the effects of a test compound against 5-LO and also cyclooxygenase in the presence of blood cells and proteins. It permits the selectivity of the inhibitory effect on 5-LO or cyclooxygenase to be assessed.

5-LO [2] = molecular target: T3, 5-LO (Rattus norvegicus, UniProt P12527); assay: Test (b): heparinised rat blood challenged with A23187, LTB4 radioimmunoassay; type: cell-based; set-up: incubating a test compound with heparinised rat blood; from tissue; host or cells: heparinised rat blood
T3 sequence (P12527 1-673): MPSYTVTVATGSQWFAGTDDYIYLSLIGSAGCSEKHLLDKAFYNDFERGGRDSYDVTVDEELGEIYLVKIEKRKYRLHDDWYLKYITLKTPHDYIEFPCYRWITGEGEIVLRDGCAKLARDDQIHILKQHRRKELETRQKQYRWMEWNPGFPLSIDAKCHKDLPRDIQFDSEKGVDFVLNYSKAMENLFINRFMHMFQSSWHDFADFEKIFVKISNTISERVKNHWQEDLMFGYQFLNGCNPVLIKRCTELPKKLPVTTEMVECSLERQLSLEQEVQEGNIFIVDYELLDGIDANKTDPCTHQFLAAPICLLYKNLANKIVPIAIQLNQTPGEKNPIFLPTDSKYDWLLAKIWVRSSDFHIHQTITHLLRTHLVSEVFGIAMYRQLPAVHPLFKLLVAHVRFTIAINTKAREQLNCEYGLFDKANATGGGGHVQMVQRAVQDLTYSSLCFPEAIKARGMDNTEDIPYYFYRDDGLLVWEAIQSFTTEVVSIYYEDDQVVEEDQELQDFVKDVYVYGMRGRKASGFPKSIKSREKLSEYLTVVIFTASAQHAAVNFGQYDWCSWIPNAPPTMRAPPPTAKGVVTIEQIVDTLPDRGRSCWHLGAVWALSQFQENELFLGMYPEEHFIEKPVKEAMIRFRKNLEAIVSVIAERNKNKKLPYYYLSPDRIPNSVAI
Procedure: as §1

5-LO [3] = molecular target: T3, 5-LO; assay: Test (c): ex vivo assay, oral dosing, blood challenged with A23187, LTB4 radioimmunoassay; type: in vivo; set-up: blood collection, heparinisation, challenge with A23187 and radioimmunoassay of LTB4 and PGE2; from tissue; host or cells: blood of dosed animals, heparinised ex vivo; settings: A23187 challenge
Procedure: (c) An ex vivo assay system, which is a variation of test b) above, involving administration of a test compound (usually orally as the suspension produced when a solution of the test compound in dimethylsulphoxide is added to carboxymethylcellulose), blood collection, heparinisation, challenge with A23187 and radioimmunoassay of LTB4 and PGE2. This test provides an indication of the bioavailability of a test compound as an inhibitor of 5-LO or cyclooxygenase.

Structure (SMILES): O=c1c2ccccc2[nH]n1Cc1cccnc1 [1,2-dihydro-2-(3-pyridylmethyl) 3H indazol-3-one]
- induction of methaemoglobin formation (dogs): causes induction of methaemoglobin formation

Structure (SMILES): CCCCCNC(=O)c1cccc2[nH]n(C)c(=O)c12 [Example 5, 1,2-dihydro-2-methyl-4-(N-n-pentylcarbamoyl)-3H-indazol-3-one]
- IC50 (5-LO [1]): 3.1 µM
- IC50 (cyclooxygenase): 72 µM
- IC50 (5-LO [2]): 1.4 µM
- ED50 (5-LO [3]): 30 to 100 mg/kg
